Laboratory results taken from US12502362B2, “Inhibitors of nucleotidyltransferase superfamily enzymes as antibiotics” (priority 2017, dated 2025).
In brackets after ≈: the same amount, converted by molar mass.

How the values were obtained:
[1] = test system: S. aureus ATCC strains and methicillin-resistant Staphylococcus aureus (MRSA); test: MIC80 on S. aureus ATCC strains and MRSA; type: cell-based
Experimental: (§1) To further characterize the compounds, the minimal inhibitory concentration (MIC80) were determined for selected compounds. MIC80 is defined as the compound concentration at which ≥80% bacterial growth is inhibited compare to untreated controls. Meanwhile, for the selected compounds, cytotoxicity assays (CC50) were performed on a HepG2-derived hepatoblastoma cell line (HEPDES19). […] For CC50 evaluation, soluble tetrazolium dye (MTS) was used to measure mitochondrial toxicity in a human hepatoblastoma cell line (18). The bacteria (E. coli, S. saprophyticus and A. baumannii) used in MIC80 measurements were the same as that in the primary screening, but for Staphylococcus, S. aureus is used primarily because it is a common pathogen in Staphylococcaeae family, while S. saprophyticus is part of the normal human flora.

[2] = test system: Staphylococcus epidermidis; test: MIC80 on S. epidermidis; type: cell-based
Experimental: as §1, with “(HEPDES19). […] For the MIC80 measurements, a 1.5 fold dilution series of the compounds was prepared in Mueller-Hinton II broth.” for “(HEPDES19).”, “flora. S. aureus (ATCC 29213) is methicillin-sensitive Staphylococcus aureus (MSSA) strain and it was used as a model strain to measure the MIC80.” for “flora.”
(§2) It was also tested whether compounds #63 and #285 can inhibit other coagulase-negative Staphylococcus (CNS) including S. epidermidis, S. hominis, etc. […] .

[3] = test system: Staphylococcus hominis; test: MIC80 on S. hominis; type: cell-based
Experimental: as §1, with “(HEPDES19). […] For the MIC80 measurements, a 1.5 fold dilution series of the compounds was prepared in Mueller-Hinton II broth.” for “(HEPDES19).”, “flora. S. aureus (ATCC 29213) is methicillin-sensitive Staphylococcus aureus (MSSA) strain and it was used as a model strain to measure the MIC80.” for “flora.”
as §2

[4] = test system: S. aureus (ATCC 29213); test: MIC80 on S. aureus; type: cell-based, Staphylococcus aureus; details: Staphylococcus aureus, ATCC 29213 / MSSA, read-out: MIC80 S. aureus, S. aureus ATCC 29213 (MSSA); ≥80% growth inhibition
Experimental: as §1

[5] = test system: Acinetobacter baumannii (Abl, from a patient); test: microbe, parasite or virus in culture; type: cell-based; details: Acinetobacter baumannii, read-out: MIC80 A. baumannii, A. baumannii Ab1, MDR patient isolate
Experimental: as §1

[6] = test system: E. coli (ATCC 35218); test: microbe, parasite or virus in culture; type: cell-based; details: for MIC80: Escherichia coli, ATCC35218, read-out: MIC80 E. coli, E. coli ATCC 35218
Experimental: as §1

[7] = Cytotoxicity assay (CC50), MTS; type: cell-based, human; details: human, HepG2-derived hepatoblastoma cell line (HEPDES19), HEPDES19 cells
Experimental: as §1

[8] = test system: HepG2-derived hepatoblastoma cell line (HEPDES19); test: Cytotoxicity assay (CC50), MTS; type: cell-based, human; details: HEPDES19 cells
Experimental: as §1

[9] = test system: Coagulase negative Staphylococcus; test: MIC80 on coagulase negative Staphylococcus; type: cell-based
Experimental: as §1, with “(HEPDES19). […] For the MIC80 measurements, a 1.5 fold dilution series of the compounds was prepared in Mueller-Hinton II broth.” for “(HEPDES19).”, “flora. S. aureus (ATCC 29213) is methicillin-sensitive Staphylococcus aureus (MSSA) strain and it was used as a model strain to measure the MIC80.” for “flora.”
as §2

[10] = test system: S. aureus and/or S. saprophyticus; test: MIC80 on S. aureus and/or S. saprophyticus; type: cell-based; details: read-out: MIC80 against S. aureus and/or S. saprophyticus
Experimental: as §1, with “(HEPDES19). […] For the MIC80 measurements, a 1.5 fold dilution series of the compounds was prepared in Mueller-Hinton II broth.” for “(HEPDES19).”, “flora. S. aureus (ATCC 29213) is methicillin-sensitive Staphylococcus aureus (MSSA) strain and it was used as a model strain to measure the MIC80.” for “flora.”

[11] = test system: Staphylococcus saprophyticus (ATCC BAA-750); test: MIC80 on S. saprophyticus; type: cell-based; details: Staphylococcus saprophyticus, ATCCBAA750; S. saprophyticus ATCC BAA-750; read-out: MIC80 S. sapro
Experimental: as §1

[12] = test system: Enterobacter cloacae complex; test: microbe, parasite or virus in culture; type: cell-based; details: Enterobacter cloacae
Experimental: as §1
(§3) All these MDR-bacteria are at least resistant to two classes of the antibiotics among five groups and/or specific antibiotics including quinolones/fluorquinolones, carbapenems, cephalosporins, aminoglycosides and piperacillin-tazobactam.

[13] = test system: Klebsiella pneumoniae; test: microbe, parasite or virus in culture; type: cell-based; details: Klebsiella pneumoniae
Experimental: as §1, §3

[14] = test system: MDR E. coli; test: microbe, parasite or virus in culture; type: cell-based; details: Escherichia coli
Experimental: as §1, §3

[15] = test system: Citrobacter koseri; test: microbe, parasite or virus in culture; type: cell-based; details: Citrobacter koseri
Experimental: as §1, §3

[16] = test system: MDR Enterobacteriaceae; test: microbe, parasite or virus in culture; type: cell-based; details: Escherichia coli, read-out: MIC80 on MDR Enterobacteriaceae
Experimental: as §1, §3

[17] = test system: Morganella morganii; test: microbe, parasite or virus in culture; type: cell-based; details: Morganella morganii
Experimental: as §1, §3

O=C(Oc1cccccc1=O)c1ccc(Cl)cc1 [Compound 63]
MIC80 ([1]; ATCC 25923 / MRSA, S. aureus ATCC 25923): 8.8 µM (≈ 2.29 µg/mL)
MIC80 ([1]; ATCC 29213 / MRSA, S. aureus ATCC 29213 (Table 3)): 8.8 µM (≈ 2.29 µg/mL)
MIC80 ([1]; BAA-976 / MRSA, S. aureus ATCC BAA 976): 13.2 µM (≈ 3.44 µg/mL)
MIC80 ([1]; BAA-977 / MRSA, S. aureus ATCC BAA 977): 8.8 µM (≈ 2.29 µg/mL)
MIC80 ([1]; MRSA, Sa1 (MRSA)): 8.8 µM (≈ 2.29 µg/mL)
MIC80 ([1]; MRSA, Sa2 (MRSA)): 8.8 µM (≈ 2.29 µg/mL)
MIC80 ([1]; MRSA, Sa3 (MRSA)): 8.8 µM (≈ 2.29 µg/mL)
MIC80 ([1]; MRSA, Sa5 (MRSA)): 8.8 µM (≈ 2.29 µg/mL)
MIC80 ([1]; MRSA, Sa6 (MRSA)): 8.8 µM (≈ 2.29 µg/mL)
MIC80 ([1]; MRSA, Sa7 (MRSA)): 8.8 µM (≈ 2.29 µg/mL)
MIC80 ([1]; MRSA, Sa8 (MRSA)): 8.8 µM (≈ 2.29 µg/mL)
MIC80 ([1]; MRSA, Sa9 (MRSA)): 8.8 µM (≈ 2.29 µg/mL)
MIC80 ([1]; MRSA, Sa10 (MRSA)): 8.8 µM (≈ 2.29 µg/mL)
MIC80 ([1]; MRSA, Sa11 (MRSA)): 8.8 µM (≈ 2.29 µg/mL)
MIC80 ([1]; MRSA, Sa12 (MRSA)): 8.8 µM (≈ 2.29 µg/mL)
MIC80 ([1]; MRSA, Sa14 (MRSA)): 8.8 µM (≈ 2.29 µg/mL)
MIC80 ([1]; MRSA, Sa15 (MRSA)): 8.8 µM (≈ 2.29 µg/mL)
MIC80 ([1]; MRSA, Sa16 (MRSA)): 8.8 µM (≈ 2.29 µg/mL)
MIC80 ([1]; MRSA, Sa17 (MRSA)): 8.8 µM (≈ 2.29 µg/mL)
MIC80 ([1]; MRSA, Sa18 (MRSA)): 8.8 µM (≈ 2.29 µg/mL)
MIC80 ([1]; MRSA, Sa19 (MRSA)): 8.8 µM (≈ 2.29 µg/mL)
MIC80 ([1]; MRSA, Sa20 (MRSA)): 8.8 µM (≈ 2.29 µg/mL)
MIC80 ([1]; MRSA, Sa21 (MRSA)): 8.8 µM (≈ 2.29 µg/mL)
MIC80 ([1]; MRSA, Sa22 (MRSA)): 8.8 µM (≈ 2.29 µg/mL)
MIC80 ([1]; MRSA, Sa23 (MRSA)): 8.8 µM (≈ 2.29 µg/mL)
MIC80 ([2]; Se1 (Staphylococcus epidermidis)): 8.8 µM (≈ 2.29 µg/mL)
MIC80 ([2]; Se2 (Staphylococcus epidermidis)): 8.8 µM (≈ 2.29 µg/mL)
MIC80 ([2]; Se3 (Staphylococcus epidermidis)): 8.8 µM (≈ 2.29 µg/mL)
MIC80 ([2]; Se4 (Staphylococcus epidermidis)): 8.8 µM (≈ 2.29 µg/mL)
MIC80 ([2]; Se5 (Staphylococcus epidermidis)): 8.8 µM (≈ 2.29 µg/mL)
MIC80 ([3]; Sh1 (Staphylococcus hominis)): 8.8 µM (≈ 2.29 µg/mL)
MIC80 ([3]; Sh2 (Staphylococcus hominis)): 13.2 µM (≈ 3.44 µg/mL)
MIC80 ([3]; Sh3 (Staphylococcus hominis)): 8.8 µM (≈ 2.29 µg/mL)
MIC80 [4]: 16.5 µM (≈ 4.3 µg/mL)
MIC80 [5]: 83.4 µM (≈ 21.7 µg/mL)
MIC80 [6]: 111 µM (≈ 29 µg/mL)
CC50 [7]: > 50 µM
CC50 [8]: ≥ 100 µM
MIC80 ([9]; CNS1 (Coagulase negative Staphylococcus)): 13.2 µM (≈ 3.44 µg/mL)
MIC80 ([9]; CNS2 (Coagulase negative Staphylococcus)): 5.9 µM (≈ 1.54 µg/mL)
MIC80 [10]: < 20 µM
MIC80 [11]: 9.2 µM (≈ 2.4 µg/mL)

Cc1ccc(C(=O)Sc2cccccc2=O)cc1 [Compound 284]
MIC80 [4]: 15 µM (≈ 3.84 µg/mL)
MIC80 [5]: 55.6 µM (≈ 14.3 µg/mL)
MIC80 E. coli ([6]; E. coli ATCC 35218): 24.1 µM (≈ 6.18 µg/mL)
MIC80 [6]: < 30 µM
CC50 [7]: > 50 µM
MIC80 [10]: < 20 µM
MIC80 [12]: 8.8 µM (≈ 2.26 µg/mL)
MIC80 ([13]; Kp1 (Klebsiella pneumonia)): 5.9 µM (≈ 1.51 µg/mL)
MIC80 ([13]; Kp6 (Klebsiella pneumonia)): 29.6 µM (≈ 7.59 µg/mL)
MIC80 ([14]; Ec1 (MDR E. coli)): 5.9 µM (≈ 1.51 µg/mL)
MIC80 ([14]; Ec2 (MDR E. coli)): 3.9 µM (≈ 1 µg/mL)
MIC80 ([14]; Ec3 (MDR E. coli)): 5.9 µM (≈ 1.51 µg/mL)
MIC80 ([14]; Ec4 (MDR E. coli)): 8.8 µM (≈ 2.26 µg/mL)
MIC80 ([14]; Ec5 (MDR E. coli)): 29.6 µM (≈ 7.59 µg/mL)
MIC80 [15]: 8.8 µM (≈ 2.26 µg/mL)
MIC80 [16]: ≤ 20 µM
MIC80 [17]: 19.8 µM (≈ 5.08 µg/mL)
MIC80 [11]: 44.4 µM (≈ 11.4 µg/mL)
